Results on 2 compounds are retold here after patent US10206936B2, “Oxidized lipids and treatment or prevention of fibrosis” (Vascular Biogenics Ltd., priority 2014, dated 2019).

Values joined by “and” are separate entries in the source; they are usually repeats but may differ in a detail not shown here. Identical values can stand only once.

One assay relates to Collagen IV. Nature of the assay: 5/6 nephrectomy rat model: kidney Collagen IV mRNA, real-time PCR. The format is in vivo, Sprague Dawley (SD) Rats. The following applies: kidney of Nx rats, 8 weeks; for reduction of Collagen IV mRNA expression vs Nx PBS 0.5% Eth: VB-201 4 mg/kg or telmisartan 10 mg/kg; for Collagen IV relative mRNA expression (mean ± SEM): normalized to TBP, relative to Sham PBS 0.5% Eth. An excerpt: (§1) Rats were divided into three groups: (1) Healthy rats (n=3) in group A, (2) Sham group—subjected to chirurgical process but without kidney mass reduction (n=3) in group B, and (3) the rest were induced with chronic renal failure (n=24). Chronic renal failure was induced by a two stage (5/6) nephrectomy (Nx), with subtraction firstly of about ⅔ of the left kidney by left flank incision and, one week later, complete removal of the right kidney. General anesthesia consisted of intraperitoneal injection of ketamine 100 mg/kg and xylazine 20 mg/kg (0.85 ml ketamine+0.15 ml xylazine for each ml preparation; 1 μl/g BW was injected I.P).
(§2) Body weight (BW) was monitored throughout the study and rats were treated by oral gavage according to their body weight for 7 weeks. Rats were sacrificed by CO2 inhalation 8 weeks from removal of the right kidney (2nd surgery).
(§3) Kidney RNA was extracted with an RNeasy Fibrous Tissue Mini kit (Qiagen) and after DNAse I treatment, single-stranded cDNA was synthesized from 2 μg total RNA using the qScript cDNA Synthesis Kit (Quanta Biosciences) and diluted for real-time PCR. The expression of collagen 4a, fibronectin and TGFβ was quantified using the 7300 Real Time PCR System (Applied Biosystems). The assay was performed according to manufacturer instructions using the primers (Assay ID) represented at the table below supplied by Applied Biosystems. Data were normalized to the reference gene TATA-box Binding Protein (TBP) and presented as relative mRNA levels compared with Sham PBS 0.5% Eth treatment (Table 1).

For another assay, the system named is NASH mouse model. In words: NASH mouse model (STZ + HFD): liver inflammation and fibrosis histology. The following applies: NASH mice; for reduction of liver inflammation (inflammation score) vs vehicle: VB-201 4 mg/kg or telmisartan 10 mg/kg once daily for three weeks. Type of assay: in vivo. As for the experimental part: Neonatal male mice exposed to low-dose streptozotocin (STZ) develop liver steatosis with diabetes. Continuous high fat diet (HFD) increases lobular inflammation with foam cell-like macrophages, showing nonalcoholic steatohepatitis (NASH) pathology. NASH was induced in 40 male mice by a single subcutaneous injection of 200 μg per mouse of STZ two days after birth and feeding HFD [57 kcal % fat]) from four weeks of age. Vehicle, VB-201 (4 mg/kg), or telmisartan (10 mg/kg) as positive control, were administered once daily for three weeks, starting from six weeks of age. Mice were sacrificed at nine weeks of age.
Liver pathology was used to determine the effect of VB-201 on liver inflammation and fibrosis. Histology slides were stained with hematoxylin/eosin (H&E) to assess inflammation. The inflammation score was determined as follows:
Histology slides were stained with Sirius red to determine collagen content as a marker for the extent of fibrosis.

Assay [1] has as its system nephrectomized rats. In words: 5/6 nephrectomy rat model: glomerular damage and sclerosis (PAS). The following applies: for Glomerular sclerosis, Global % (Mean ± S.E) / Glomerular sclerosis, Global & Segmental % (Mean ± S.E) / Glomerular sclerosis, Segmental % (Mean ± S.E): Nx rats, VB-201 4 mg/kg or telmisartan 10 mg/kg, 8 weeks; for reduction of damaged glomeruli vs Nx PBS 0.5% Eth / reduction of sclerotic glomeruli vs Nx PBS 0.5% Eth: VB-201 4 mg/kg or telmisartan 10 mg/kg oral, 7 weeks, evaluated at 8 weeks. The format is in vivo, Sprague Dawley (SD) Rats. As for the experimental part:
Male Sprague Dawley (SD) Rats (Harlan Laboratories, Israel) with an initial weight of 200 g were housed 2-3 per cage in IVC cages in dedicated HVAC (heat, ventilation, air conditioning) animal facility. The facility had no exposure to outside light and was maintained on automatic alternating cycles of 12 hours of light and 12 hours of dark. Animals were provided with a commercial rodent diet (Harlan Teklad TRM Rat/Mouse Diet) ad libitum and allowed free access to autoclaved water, supplied to each cage via polysulphone bottles with stainless steel sipper tubes. All animal work was approved by the Animal Care and Use Committee of Israel (IL-13-03-027).
as §1
One week following the second surgery, rats were randomly assigned to the following experimental groups:
Nephrectomized, orally administered with VB-201 4 mg/kg (n=8); and
Nephrectomized, orally administered with telmisartan 10 mg/kg as positive control (n=8).
as §2
Upon sacrifice, at 8 weeks, kidneys were collected, weighed and fixed in 4% formaldehyde.
For light microscopy, paraffin-embedded tissue slides of 4 μm were stained with Periodic Acid-Schiff (PAS) reagent.
Glomerulosclerosis was assessed by PAS-stained sections using a semiquantitative scoring system. The extent of glomerulosclerosis was evaluated by examining mostly 100 randomly selected glomeruli at a magnification of ×400 and applying a score system according to the percentage of sclerosed glomerular area. The score was graded from 0 to 4: (0=0% area; 1=1-25%; 2=26-50%, 3=51-75%, 4=76% and above). The mean of all scored glomeruli was presented. Moreover, the extent of global and segmental glomerulosclerosis was evaluated in the same glomeruli, where <80% sclerosis was referred to as segmental and >80% was referred to as global.
The glomerular area of mostly 100 randomly selected glomeruli at a magnification of ×100 was quantitated by counting squares covered by glomeruli area using a grid and the mean glomeruli area was calculated.
Glomeruli were evaluated for their fibrosis extent by scoring and by calculation of the percent of glomeruli having segmental sclerosis, global sclerosis and the sum of global and segmental sclerotic glomeruli. Moreover, the area of the glomeruli was calculated and the percent of hypertrophied glomeruli was calculated. Damaged glomeruli included hypertrophied (at least ×1.5 from normal area) and or sclerotic glomeruli.

The subject of the next assay is TGF-β. In words: 5/6 nephrectomy rat model: kidney TGF-β mRNA, real-time PCR. The format is in vivo, Sprague Dawley (SD) Rats. The conditions noted are these: kidney of Nx rats, 8 weeks; for reduction of TGF-β mRNA expression vs Nx PBS 0.5% Eth: VB-201 4 mg/kg or telmisartan 10 mg/kg; for TGF-β relative mRNA expression (mean ± SEM): normalized to TBP, relative to Sham PBS 0.5% Eth.
Source text: as §1, §2, §3

The subject of assay [2] is nephrectomized rats. In words: 5/6 nephrectomy rat model: ED-1/CD68+ monocyte/macrophage infiltration, immunohistochemistry. Type of assay: in vivo, Sprague Dawley (SD) Rats. The following applies: VB-201 4 mg/kg or telmisartan 10 mg/kg, 8 weeks after surgery; for ED-1/CD68+ Glomerular monocytes/macrophages (Mean ± S.E) / ED-1/CD68+ Interstitial monocytes/macrophages (Mean ± S.E): Nx rats.
Source text: as §1, §2
Renal tissues were fixed in 4% formaldehyde and embedded in paraffin. The paraffin-embedded tissues were then cut to form tissue slides of 4 μm. Immunohistochemistry of the paraffin-embedded tissue slides was analyzed using antibodies in the following concentration: monoclonal mouse anti rat CD-68 (ED-1, Serotec MCA341) 1:25. For quantitation of interstitial CD68+ staining, the number of positive cells was counted in 20 randomly selected non-overlapping fields per animal, and the mean value was presented.

For `CCCc1nc2c(C)cc(-c3nc4ccccc4n3C)cc2n1Cc1ccc(-c2ccccc2C(=O)O)cc1` [telmisartan, reference compound], in the assay with Collagen IV, the “reduction of Collagen IV mRNA expression vs Nx PBS 0.5% Eth” value was 41% and the “Collagen IV relative mRNA expression (mean ± SEM)” value turned out to be 4.4±0.23. Also, the “reduction of liver inflammation (inflammation score) vs vehicle” value in the assay on NASH mouse model amounted to 77%. Moreover, in the assay on nephrectomized rats [1], the “Glomerular sclerosis, Global % (Mean ± S.E)” value is on record as 1.9 ± 1.60%; the “Glomerular sclerosis, Global & Segmental % (Mean ± S.E)” value was 21.0 ± 5.45%; the “Glomerular sclerosis, Segmental % (Mean ± S.E)” value was determined as 19.1 ± 4.30%; the “reduction of damaged glomeruli vs Nx PBS 0.5% Eth” value is 31%. Moreover, the “reduction of sclerotic glomeruli vs Nx PBS 0.5% Eth” value in the assay on nephrectomized rats [1] is 57%. For the same compound, in the assay with TGF-β, the “reduction of TGF-β mRNA expression vs Nx PBS 0.5% Eth” value amounted to 44% and the “TGF-β relative mRNA expression (mean ± SEM)” value was 4.7±0.52. In the assay on nephrectomized rats [2], the “ED-1/CD68+ Glomerular monocytes/macrophages (Mean ± S.E)” value is 3.185±0.427 Cells/Glomeruli and 3.185 Cells/Glomeruli; the “ED-1/CD68+ Interstitial monocytes/macrophages (Mean ± S.E)” value was 421.0±61.77 Cells/mm^2 and 421.0 Cells/mm^2; the “reduction of number of glomerular monocytes/macrophages vs Nx PBS 0.5% Eth” value was 13%; the “reduction of number of interstitial monocytes/macrophages vs Nx PBS 0.5% Eth” value was found to be 20%.

Regarding `CCCCCCCCCCCCCCCCOCC(COP(=O)([O-])OCC[N+](C)(C)C)OCCCCC(=O)O` (centres unmarked) [VB-201, 1-hexadecyl-2-(4′-carboxybutyl)-glycero-3-phosphocholine], in the assay with Collagen IV, the “reduction of Collagen IV mRNA expression vs Nx PBS 0.5% Eth” value is recorded as 42% and the “Collagen IV relative mRNA expression (mean ± SEM)” value came out at 4.3±0.33. Besides, in the assay with NASH mouse model (VB-201 4 mg/kg once daily for three weeks), the “decrease of extent of liver fibrosis (Sirius red fibrosis area) vs vehicle” value is listed as “about 34%”. In the assay on NASH mouse model, the “reduction of liver inflammation (inflammation score) vs vehicle” value came out at 65%. Moreover, in the assay with nephrectomized rats [1], the “Glomerular sclerosis, Global % (Mean ± S.E)” value was determined as 5.4 ± 3.22%; the “Glomerular sclerosis, Global & Segmental % (Mean ± S.E)” value is reported as 31.8 ± 4.92%; the “Glomerular sclerosis, Segmental % (Mean ± S.E)” value is reported as 26.5 ± 4.39%; the “reduction of damaged glomeruli vs Nx PBS 0.5% Eth” value came to 29%. Besides, the “reduction of sclerotic glomeruli vs Nx PBS 0.5% Eth” value in the assay on nephrectomized rats [1] came to 34%. Besides, in the assay on TGF-β, the “reduction of TGF-β mRNA expression vs Nx PBS 0.5% Eth” value stood at 37% and the “TGF-β relative mRNA expression (mean ± SEM)” value was 5.3±0.33. Further, in the assay on nephrectomized rats [2], the “ED-1/CD68+ Glomerular monocytes/macrophages (Mean ± S.E)” value is 2.113±0.374 Cells/Glomeruli and 2.113 Cells/Glomeruli; the “ED-1/CD68+ Interstitial monocytes/macrophages (Mean ± S.E)” value is 269.25±25.41 Cells/mm^2 and 269.3 Cells/mm^2; the “reduction of number of glomerular monocytes/macrophages vs Nx PBS 0.5% Eth” value is given as 42%; the “reduction of number of interstitial monocytes/macrophages vs Nx PBS 0.5% Eth” value is given as 49%.
